Assays:
cortical neurons = experiment: Neuroprotection against Aβ25-35 amyloid peptide toxicity in neuronal cultures (MTT test); format: cell-based, Wistar rat; details: Aβ25-35 33.5 μM
Protocol: Aβ25-35 peptide contains the neurotoxic fragment of the amyloid peptide and is a tool classically used to study the neuroprotective effects of compounds. At the beginning of each experiment, the neuronal cultures aged 7-10 days are changed with fresh culture medium and treated with the etazolate inhibitor compound, six hours before the addition of Aβ25-35 amyloid peptide at a concentration of 33.5 μM In a classical and reproducible manner, this concentration generates 30% to 40% toxicity in neuronal cultures. Several experiments are undertaken to characterize the neuroprotective effect of etazolate. […] In order to determine whether it is the inhibition of sAPPalpha or its production that provides the neuroprotective effect of etazolate against amyloid peptide, a neutralizing anti-sAPPα antibody (3E9 antibody) and alpha secretase inhibitors are respectively used. For the neutralization of sAPPα, 3E9 antibody (5 μg/ml) is added to the cortical cells at the same time as the etazolate. Two alpha secretase inhibitors, the compound Furin Inhibitor […], Sohn J H, Lee […], Mook-Jung I. Furin is an endogenous regulator of alpha-secretase associated APP processing. Biochem Biophys Res Commun. 2006 Oct. 20; 349(2):654-9.) and TAPI (Slack […]. […] Biochem J. 2001 Aug. 1; 357(Pt 3):787-94) are used in pretreatment one hour before the addition of the etazolate. All the treatments are effected at least twice and in at least two different cultures. After an incubation of 48 hours, the toxicity is measured by an MTT test. The results, normalized to the untreated mean, are statistically analyzed by the Wilcoxon test. The significant value is determined at p less than or equal to 0.05. The toxicity is measured by using the MTT test. After incubation with the compounds, MTT is added at a final concentration of 0.5 mg/mL by wells. The plates are then incubated for 30 minutes at 37° C. at night. The medium is drawn off and the crystals are resuspended in 500 μL of DMSO (dimethylsulfoxide). The absorbance at 550 nm is read and the viability percentage is calculated.

sAPPalpha [1] = experiment: sAPPalpha production in HEK293 cells over-expressing human APP (ELISA and Western blot); format: cell-based; details: HEK293 cells stably over-expressing human APP; variable concentrations; 24 hours; FIG. 5
Protocol: HEK293 cells transfected in a stable manner over-expressing human APP were kept in Modified Eagle medium containing Earle salt and supplemented by 10% fetal calf serum (FCS), 2 mM L-glutamine (Sigma, Lyon, France), 1× Nonessential Amino Acids and antibiotics. The cells were treated for 48 hours after spreading variable concentrations of the molecules indicated on 10-cm plates, or with DMSO as a carrier, for 24 hours. The sAPPalpha had been measured by ELISA and Western blot by means of commercially available antibodies.

sAPPalpha [2] = experiment: sAPPalpha production by cortical neurons (Western blot); format: cell-based, Wistar rat; details: 0.2 and 2 μM for 24 h; Western blot densitometry; versus non-treated cultures; FIG. 6
Protocol: The production of sAPPalpha was measured in cortical neurons isolated from 17-day-old Wistar rat embryos. The cells are obtained from cortical structures that are dissected into a solution containing 0.25% trypsin. The dissociated cells are seeded at a density of 500,000 per cm^2 in a Neurobasal medium containing additives (1×B27, 2 mM L-glutamine, 0.6% glucose, antibiotics and antimycotics, as well as 2% horse serum) in culture dishes coated with 6 μg/mL, of polyornithine. The cells are kept at 37° C. and 5% CO2. 24 hours after seeding, the cells are treated with 5 μM AraC (5 cytosine arabinofuranoside) as an antimitotic agent. After 4 days in vitro, half the medium is exchanged for medium without horse serum and the culture is kept for maturation in this medium for 7 to 10 days. The sAPPalpha was measured by Western blot by means of antibodies available commercially after one change of medium and accumulation in fresh medium for 24 hours. Quantification was done by densitometric analyses of scanned autoradiographic images. […] The results presented are the mean±SEM of three independent experiments performed in duplicate and are expressed the form of percentage of the control (non-treated cultures).

sAPPalpha [3] = experiment: sAPPalpha production in vivo in guinea pig brain (ELISA); details: 10 mg/kg per os once a day for 15 days; guinea pig cortices; versus excipient; p<1E-4; FIG. 7
Protocol: The production of sAPPalpha was studied in vivo in the guinea pig, a physiological model for APP processing in the brain. The etazolate or the excipient (physiological saline solution) was administered to male Hartley albino guinea pigs, weighing 250-270 g at the beginning of the experiment, once a day for 15 consecutive days, per os in a dose of 10 mg/kg. One h after the last administration, the guinea pigs were sacrificed and the brains immediately extracted, frozen in nitrogen and stored at −80° C. The cortices were homogenized at 4° C. in a pH 7.5 20 mM Tris base solution containing 0.2% Triton X-100, 50 μg/mL, gentamicin and a protease inhibitor cocktail. The soluble sAPPalpha was measured by an ELISA test and the results normalized with regard to the quantity of proteins present in the extracts.

TAPI [reference compound]
effect on the neuroprotection induced by etazolate (cortical neurons; agent added before or with etazolate, cortical neurons, FIGS. 8-10): inhibited

CCOC(=O)c1cnc2c(cnn2CC)c1NN=C(C)C [etazolate]
sAPPalpha secretion (sAPPalpha [1]): induces sAPPalpha secretion | salting out of sAPPalpha from cortical neurons (sAPPalpha [2]): stimulates the salting out of sAPPalpha | quantity of sAPPalpha measured in the brains (sAPPalpha [3]): increase by a factor of three | cellular viability (cortical neurons; 0.2 μM etazolate, 48 hours, FIG. 8): 90% | protector effect on neuronal death induced by Aβ25-35 (cortical neurons; co-treatment of neurons, 48 hours, FIG. 8): dose-dependent protector effect

Reference: patent US20090317842A1, “Methods and Tools for The Therapy of Neurodegenerative Pathologies” (EXONHIT THERAPEUTICS SA, priority 2006, published 2009)
